Measurements as given in patent US20250304623A1, “PEPTIDES FOR INTRACELLULAR DELIVERY” (UNIVERSIDADE DE SANTIAGO DE COMPOSTELA, priority 2022, published 2025).
*: point of attachment. NHNH2 = NN*

Tests used:
Assay type in all cases: cell-based
[1] = test system: Hela cells expressing EGFP; test: Cas9-RNP delivery against EGFP (gene editing, plate reader), HeLa; settings: for % GFP silencing due to gene editing (Cas9-RNP): HeLa
Procedure: (§1) To generate an EGFP expressing HeLa cell line, HeLa cells were transfected with EGFP pDNA (pEGFP-C1, Clontech) and stable transfectants were selected with 400 μg/mL of G-418 (Millipore). Green clones were selected by epifluorescence microscopy and tested for EGFP expression stability through several passages. […] All other EGFP-expressing cell lines were obtained in a similar way from parent non-EGFP-expressing cell lines.
Cells expressing EGFP were seeded in a 96 well plate the day before the experiment at a concentration of 50,000 cell/mL (100 μL/w) in DMEM+10% FBS+1% Gln-Abt. For robotic library screening, the delivery of Cas9-RNP against EGFP (RNP designed to knock-out the gene encoding for the enhanced green fluorescent protein (EGFP)) was performed. For RNP assembly, 9.2 μL of crRNA and 9.2 μL of tracrRNA were mixed in 211.6 μL of Nuclease-Free Duplex Buffer (IDT), incubated for 5 min at 95° C. and slowly cooled at rt (see I. Lostalé-Seijo, et al. Peptide/Cas9 nanostructures for ribonucleoprotein cell membrane transport and gene edition, Chem. Sci., 2017). Cas9 protein was dissolved in DMEM at a final concentration of 4 μM and equal volumes of the RNA complex and Cas9 were mixed and incubated for 5 min at rt. 75 μL of the corresponding amphiphile concentrations were added to 5 μL of RNP at 2 μM. The mixture was shaken for 30 min at room temperature before the addition to the cells. The cell medium was aspirated, and cells were washed twice with PBS. Cells were covered with 30 μL of DMEM and 20 μL of the RNP/amphiphile complexes were added to the cells (final peptide concentrations=2.5, 5 and 10 μM; final Cas9-RNP concentration=50 nM) and incubated for 4 h. After the incubation, the medium was replaced by 100 μL of fresh DMEM supplemented with 10% FBS. The total EGFP fluorescence was quantified after 72 h in a plate reader (FIG. 2, Table 1 (right) and Table 6). All experiments were done in triplicate.
(§2) Tables 1-7: RLuc (pDNA) or EGFP (mRNA) expression levels were normalized to Lipofectamine reagents (value=1) and expressed as fold-times signal increase. In the case of siRNA, the siRNA treated cells fluorescence was compared with siMOCK control fluorescence, while Cas9-RNP mediated knockout was measured against the fluorescence of untreated cells. In both siRNA and Cas9-RNP, values are expressed as % fluorescence reduction. Amphiphile concentration was 5 μM in all cases. All experiments were performed in triplicate.
Tables 26-31 show the mean (triplicates) percentage of gene editing, accounted by GFP fluorescence intensity decrease (% of reduction), measured after the transfection of Cas9-RNP by different amphiphiles at different concentrations in a variety of cell lines. Background values, accounted by untreated control cells, were subtracted for processing.

[2] = test system: Hela cells; test: EGFP mRNA delivery, robotic library screening, HeLa
Procedure: Cells were seeded in a 96 well plate the day before the experiment at a concentration of 50,000 cell/mL (100 μL/w) in DMEM+10% FBS+1% Gln-Abt. For robotic library screening, the delivery of EGFP-mRNA (from TriLink, fully substituted with 5-methoxyuridine, capped and polyadenylated; TriLink, CleanCap® EGFP mRNA (5moU), ref. L-7201) in six different cell lines was performed. Amphiphilic molecule stock solutions were prepared in DMSO as described above and diluted in DMEM to afford a range of concentrations. The solutions of EGFP-mRNA/amphiphilic molecule complexes were freshly prepared prior to the transfection experiments. 35 μL of the corresponding amphiphile were added to 10 μL of a solution of EGFP-mRNA at 10 ng/μL in DMEM. The mixture was shaken for 30 min at room temperature before the addition to the cells. The cell medium was aspirated, and cells were washed with PBS twice. Cells were covered with 39 μL of DMEM and 11 μL of the complex's solution were added to the cells and incubated for 4 h (final concentration of peptide=2.5, 5 and 10 μM; final concentration of EGFP-mRNA=25 ng/well). After the incubation, the medium was replaced by 100 μL of fresh DMEM supplemented with 10% FBS. The total EGFP fluorescence was quantified after 72 h in a well plate reader. Amphiphile transfection efficiency was compared and normalized to Lipofectamine® MessengerMax efficiency (value of 1 in Tables 1-5 and 7; double underlined numbers). All experiments were done in triplicate.
as §2
Tables 14-19 show the mean (triplicates) fluorescence intensity measured after the transfection of EGFP mRNA by different amphiphiles at different concentrations in a variety of cell lines. Background fluorescence values, accounted by untreated control cells, were subtracted for processing.

[3] = test system: HepG2 cells expressing EGFP; test: EGFP-targeting siRNA delivery (GFP silencing vs siMOCK), HepG2
Procedure: as §1
Cells expressing EGFP were seeded in a 96 well plate the day before the experiment at a concentration of 50,000 cell/mL (100 μL/w) in DMEM+10% FBS+1% Gln-Abt. For robotic library screening, the delivery of an EGFP-targeting siRNA (EGFP: enhanced green fluorescent protein, Ambion® Silencer® GFP Positive Control siRNA (siGFP) (AM4626)) in six different cell lines expressing EGFP was performed. […] The mixture was shaken for 30 min at room temperature (rt) before the addition to the cells. The cell medium was aspirated, and cells were washed twice with PBS. Finally, 50 μL of the solution of siRNA/amphiphile complexes were added to the cells and incubated for 4 h. After transfection, the medium was replaced by 100 μL of fresh DMEM supplemented with 10% FBS. The fluorescence knockdown was quantified after 72 h in a plate reader, by comparison with cells transfected with a non-targeting siRNA control (siMOCK, Silencer™ Negative Control No. 1 siRNA (siMOCK) (AM4611)). EGFP knockdown was compared with Lipofectamine® RNAiMAX silencing efficiency (30-60% depending on cell line, defined with a numeric value in the below tables). All experiments were done in triplicate.
as §2
Tables 20-25 show the mean (triplicates) percentage of GFP-silencing, accounted by fluorescence intensity decrease relative to a non-targeting siRNA (siMOCK) control, measured after the transfection of siRNA by different amphiphiles at different concentrations in a variety of cell lines. Background values, accounted by untreated control cells, were subtracted for processing.

[4] = Petroselinyl, 15 μM, Hela cells

Row | Substance | percentage of gene editing, GFP fluorescence intensity decrease (% of reduction) ([1]; Myristoleyl, 5 μM, HeLa cells) [%] | percentage of gene editing, GFP fluorescence intensity decrease (% of reduction) ([1]; Palmitoleyl, 5 μM, HeLa cells) [%] | percentage of gene editing, GFP fluorescence intensity decrease (% of reduction) ([1]; Palmitoleyl, 10 μM, HeLa cells) [%] | percentage of gene editing, GFP fluorescence intensity decrease (% of reduction) ([1]; Palmitoleyl, 15 μM, Hela cells) [%] | percentage of gene editing, GFP fluorescence intensity decrease (% of reduction) [1, 4] [%] | mean fluorescence intensity (EGFP mRNA) ([2]; HeLa, Dodecanal, 5 μM) | mean fluorescence intensity (EGFP mRNA) ([2]; HeLa, Myristoleyl, 2.5 μM) | mean fluorescence intensity (EGFP mRNA) ([2]; HeLa, Petroselinyl, 10 μM) | mean fluorescence intensity (EGFP mRNA) ([2]; Hela, Dodecanal, 10 μM) | mean fluorescence intensity (EGFP mRNA) ([2]; Hela, Myristoleyl, 5 μM) | mean fluorescence intensity (EGFP mRNA) ([2]; Hela, Myristoleyl, 10 μM) | mean fluorescence intensity (EGFP mRNA) ([2]; Hela, Petroselinyl, 5 μM) | percentage of GFP-silencing relative to siMOCK ([3]; Dodecanal, 10 μM) [%] | percentage of GFP-silencing relative to siMOCK ([3]; Dodecanal, 15 μM) [%] | percentage of GFP-silencing relative to siMOCK ([3]; Myristoleyl, 10 μM) [%] | percentage of GFP-silencing relative to siMOCK ([3]; Palmitoleyl, 5 μM) [%] | percentage of GFP-silencing relative to siMOCK ([3]; Palmitoleyl, 10 μM) [%] | percentage of GFP-silencing relative to siMOCK ([3]; Palmitoleyl, 15 μM) [%] | percentage of GFP-silencing relative to siMOCK ([3]; Petroselinyl, 5 μM) [%] | percentage of GFP-silencing relative to siMOCK ([3]; Petroselinyl, 10 μM) [%] | also measured
1 | Ac-RRLK*RLK*RRLK*RL-NH2 [Peptide 13.3] | 29 | 18 | 68 | 80 | 85 | 445 | 535 | 489 | 393 | 580 | 424 | 497 | 31 | 33 | 20 | 19 | 46 | 10 | 9 | 41 | % GFP silencing due to gene editing (Cas9-RNP) ([1]; 5 μM, Ole tail): 76%; % GFP silencing due to gene editing (Cas9-RNP) ([1]; 5 μM, Pal tail): 68%; % GFP silencing due to gene editing (Cas9-RNP) ([1]; 5 μM, Pet tail): 63%; percentage of gene editing, GFP fluorescence intensity decrease (% of reduction) ([1]; Myristoleyl, 15 μM, Hela cells): 86%; mean fluorescence intensity (EGFP mRNA) ([2]; HeLa, Oleyl, 5 μM): 427; mean fluorescence intensity (EGFP mRNA) ([2]; HeLa, Petroselinyl, 2.5 μM): 633; percentage of GFP-silencing relative to siMOCK ([3]; Myristoleyl, 5 μM): 13%; percentage of GFP-silencing relative to siMOCK ([3]; Petroselinyl, 15 μM): 8%
2 | Ac-RRHK*RLK*RRLK*RL-NH2 (Ac-RRHK(NHNH2)RLK(NHNH2)RRLK(NHNH2)RL-NH2; not fully specified; printed as Ac-RRHK*RLK*RRLK*RL-NH2; also: K*4,K*7,K*11: native or modified lysine (ε-amide to a linker)) [13(Leu-His)] | 16 | – | – | – | 81 | – | – | 45 | – | – | – | 112 | – | 27 | −3 | – | 12 | 25 | – | 25 | % GFP silencing due to gene editing (Cas9-RNP) ([1]; 5 μM, Myr tail): 73%; percentage of gene editing, GFP fluorescence intensity decrease (% of reduction) ([1]; Myristoleyl, 10 μM, HeLa cells): 73%; percentage of gene editing, GFP fluorescence intensity decrease (% of reduction) ([1]; Petroselinyl, 5 μM, HeLa cells): 39%; percentage of gene editing, GFP fluorescence intensity decrease (% of reduction) ([1]; Petroselinyl, 10 μM, Hela cells): 74%; percentage of GFP-silencing relative to siMOCK ([3]; Petroselinyl, 15 μM): 6%
3 | Ac-RRLK*RLLRRLK*RLK*RRL-NH2 (Ac-RRLK(NHNH2)RLLRRLK(NHNH2)RLK(NHNH2)RRL-NH2; not fully specified; printed as Ac-RRLK*RLLRRLK*RLK*RRL-NH2; also: K*4,K*11,K*14: native or modified lysine (ε-amide to a linker)) [Peptide 17.3] | 57 | 35 | 90 | 88 | 87 | 43 | 64 | −16 | 52 | 6 | 76 | 25 | 18 | −4 | – | 4 | – | −2 | −11 | 5 | percentage of gene editing, GFP fluorescence intensity decrease (% of reduction) ([1]; Dodecanal, 5 μM, Hela cells): 81%; percentage of gene editing, GFP fluorescence intensity decrease (% of reduction) ([1]; Dodecanal, 10 μM, HeLa cells): 87%; percentage of gene editing, GFP fluorescence intensity decrease (% of reduction) ([1]; Dodecanal, 15 μM, Hela cells): 78%; percentage of gene editing, GFP fluorescence intensity decrease (% of reduction) ([1]; Oleyl, 10 μM, HeLa cells): 90%; percentage of gene editing, GFP fluorescence intensity decrease (% of reduction) ([1]; Oleyl, 15 μM, Hela cells): 82%; percentage of gene editing, GFP fluorescence intensity decrease (% of reduction) ([1]; Petroselinyl, 5 μM, HeLa cells): 48%; percentage of GFP-silencing relative to siMOCK ([3]; Dodecanal, 5 μM): 13%; percentage of GFP-silencing relative to siMOCK ([3]; Myristoleyl, 15 μM): −18%; percentage of GFP-silencing relative to siMOCK ([3]; Oleyl, 10 μM): 8%
